For 27 compounds, IC50 results are on record in BindingDB's records for doi:10.1016/j.ejmech.2019.111574 (Chungnam National University, 2019).

One may read the IC50 as the concentration needed to halve the response being measured.

This assay can be described thus: Inhibition of IL-5 receptor in mouse pro-B Y16 cells assessed as decrease in mIL-5 dependent cell proliferation after 48 hrs in presence of 3 units/ml mIL-5 by WST-1 assay. For orientation: Formazan colour is commonly taken as a measure of viable cells.
On to `OCCCCCNCc1nc2c(OCC3CCCCC3)cccc2[nH]1`, for which the IC50 was above 30 µM. In the case of `OCCC(NCc1nc2c(OCC3CCCCC3)cccc2[nH]1)c1ccccc1` (configuration not stated), the IC50 worked out at 22 µM. Regarding `OCCCNCc1nc2c(OCC3CCCCC3)cccc2[nH]1`, the IC50 is 28.5 µM. For the compound `OCC(CC1CCCCC1)NCc1nc2c(OCC3CCCCC3)cccc2[nH]1` (configuration not stated), the IC50 is 5 µM. Take `OCCN(Cc1ccncc1)Cc1nc2c(OCC3CCCCC3)cccc2[nH]1`: the IC50 is above 30 µM. Next, `CCCN(CCO)Cc1nc2c(OCC3CCCCC3)cccc2[nH]1`: 20 µM; `c1ccc(CNCc2nc3c(OCC4CCCCC4)cccc3[nH]2)cc1`: above 30 µM; `c1ccc(NCc2nc3c(OCC4CCCCC4)cccc3[nH]2)cc1`: above 30 µM. Regarding `OCCCCNCc1nc2c(OCC3CCCCC3)cccc2[nH]1`, the IC50 came out at 30 µM. As for `OCCN(Cc1ccc(Cl)cc1)Cc1nc2c(OCC3CCCCC3)cccc2[nH]1`, the IC50 was found to be 13 µM.

Take `OCCN(Cc1ccccc1)Cc1nc2c(OCC3CCCCC3)cccc2[nH]1`: the IC50 is 25 µM. In the case of `O=c1c(-c2ccc(O[C@@H]3O[C@H](CO)[C@@H](O)[C@H](O)[C@H]3O)cc2)coc2cc(O)cc(O)c12` [Sophoricoside], the IC50 turned out to be 10.6 µM. For `OCC(NCc1nc2c(OCC3CCCCC3)cccc2[nH]1)c1ccccc1` (configuration not stated), the half-maximal inhibitory concentration (IC50) worked out at 20 µM. Then `OCCN(Cc1nc2c(OCC3CCCCC3)cccc2[nH]1)C1CCCCC1`, with above 30 µM; and `CC(C)(CO)NCc1nc2c(OCC3CCCCC3)cccc2[nH]1`, with 27.5 µM; and `COc1ccc(NCc2nc3c(OCC4CCCCC4)cccc3[nH]2)cc1`, with above 30 µM. As for `CCCC(CO)NCc1nc2c(OCC3CCCCC3)cccc2[nH]1` (configuration not stated), the IC50 came to 7.5 µM. In the case of `OCCNCc1nc2c(OCC3CCCCC3)cccc2[nH]1`, the IC50 stood at 20 µM. As to `CN(CCO)Cc1nc2c(OCC3CCCCC3)cccc2[nH]1`, the IC50 was above 30 µM. Then `CC(C)N(CCO)Cc1nc2c(OCC3CCCCC3)cccc2[nH]1`, with above 30 µM; and `CCN(CCO)Cc1nc2c(OCC3CCCCC3)cccc2[nH]1`, with above 30 µM; and `OCCN(Cc1nc2c(OCC3CCCCC3)cccc2[nH]1)CC1CCCCC1`, with 21 µM.

On to `CCCC1O[C@@H]2C[C@H]3[C@@H]4CCC5=CC(=O)C=C[C@]5(C)[C@H]4[C@@H](O)C[C@]3(C)[C@]2(C(=O)CO)O1` (some centres not stated) [BUDESONIDE], for which the IC50 was 26.2 µM. Turning to `CCC(CO)NCc1nc2c(OCC3CCCCC3)cccc2[nH]1` (configuration not stated), the IC50 was 3.5 µM. Next, `COc1ccc(CNCc2nc3c(OCC4CCCCC4)cccc3[nH]2)cc1`: above 30 µM; `OCC(Cc1ccccc1)NCc1nc2c(OCC3CCCCC3)cccc2[nH]1` (configuration not stated): 12 µM. For `COc1ccc(CN(CCO)Cc2nc3c(OCC4CCCCC4)cccc3[nH]2)cc1`, the IC50 is 19 µM.
